Test system: rat pancreatic ductal cell line ARIP
Test: Trans-differentiation of ARIP ductal cells, RT-PCR of beta-cell specific genes
Format: cell-based
Settings: ARIP cells cultured with GLP-1, RT-PCR
Protocol: Based on previous studies, insulin mRNA should be detectable after 48 h, GLUT-2 after 24 h and glucokinase mRNA at 72 h. […] RT-PCR for β-actin will be used as a control for cDNA loading.

glucagon-like peptide 1 [GLP-1]
time after which GLUT-2 mRNA should be detectable: 24 h | time after which insulin mRNA should be detectable: 48 h | time at which glucokinase mRNA should be detectable: 72 h

From patent publication US7589169B2, “Compositions for treatment with glucagon-like peptide, and methods of making and using the same” (Pharmain Corporation, priority 2002, dated 2009)
